Source: the supplement of paper PMC7840683
± gives the standard deviation of the averaged measurements.

Test system: HepaRG
Assay: LDH release cytotoxicity, % of total lysis control; higher = more cytotoxic
Details: 48 h
Procedure, shortened: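 Single-lot HepaRG cells on collagen I-coated 96-well plates were exposed for 48 h in duplicate, in serum-free induction medium with 0.5% DMSO, to eight-point half-log series (test chemicals top 100 µM). Total lysis wells received 0.1% Triton X, and LDH leakage into 50 µL spent medium was read as resorufin fluorescence (CytoTox-ONE, Tecan Safire). Percent cytotoxicity was normalized to on-plate vehicle and total lysis controls and averaged over the duplicates.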

SMILES | LDH release cytotoxicity (0.03162 µM) | LDH release cytotoxicity (0.1 µM) | LDH release cytotoxicity (0.3162278 µM) | LDH release cytotoxicity (1 µM) | LDH release cytotoxicity (3.16228 µM) | LDH release cytotoxicity (10 µM) | LDH release cytotoxicity (31.6228 µM) | LDH release cytotoxicity (100 µM) | other results
OC1CCC(C2CCCCC2)CC1 (configuration not stated) [4-Cyclohexylcyclohexanol] | -1.67 ± 0.32% | -1.27 ± 1.5% | -1.62 ± 1.1% | -2.39 ± 0.036% | -2.08 ± 1.7% | -1.58 ± 0.49% | -1.22 ± 0.35% | 0.00977 ± 0.63% | –
O=C1CCC(C2CCCCC2)CC1 [4-Cyclohexylcyclohexanone] | -0.737 ± 0.094% | -0.435 ± 0.51% | -0.827 ± 0.45% | -0.822 ± 0.7% | -0.588 ± 1.1% | 0.479 ± 0.26% | 0.205 ± 0.41% | 0.739 ± 1.3% | –
C#CC(O)C(CC)CCCC (configuration not stated) [4-Ethyloct-1-yn-3-ol] | -1.1 ± 1.3% | -0.852 ± 0.24% | -1.73 ± 0.62% | -1.75 ± 0.33% | -0.91 ± 0.66% | -1.32 ± 0.19% | -1.07 ± 0.15% | 0.266 ± 0.29% | –
CCCCCCCc1ccc(O)cc1 [4-Heptylphenol] | -0.653 ± 0.82% | -1.61 ± 0.21% | -0.99 ± 0.5% | -1.03 ± 0.079% | -1.8 ± 0.76% | -0.598 ± 0.18% | -0.324 ± 0.52% | 0.525% | –
CCCCCCc1ccc(O)cc1O [4-Hexylresorcinol] | -1.87 ± 0.26% | -0.709 ± 0.041% | -0.736 ± 1.1% | -1.64 ± 0.45% | -1.6 ± 1% | -1.36 ± 0.29% | 0.152 ± 0.4% | 1.18 ± 0.84% | –
COc1cc(C=O)ccc1O [4-Hydroxy-3-methoxybenzaldehyde] | – | -2.63 ± 0.42% | – | -4.06 ± 0.31% | -3.91 ± 0.7% | -3.69 ± 0.35% | -3.12 ± 0.07% | 0.307 ± 0.14% | LDH release cytotoxicity (0.031623 µM): -0.0885 ± 1.4%; LDH release cytotoxicity (0.316228 µM): -3.71 ± 0.71%
CCC(=C(c1ccc(O)cc1)c1ccc(OCCN(C)C)cc1)c1ccccc1 [4-Hydroxytamoxifen] | – | -3.22 ± 0.47% | – | -3.76 ± 0.11% | -3.7 ± 0.16% | -3.42 ± 0.63% | -3.18 ± 0.93% | -0.0951 ± 1.1% | LDH release cytotoxicity (0.031623 µM): -1.94 ± 1%; LDH release cytotoxicity (0.316228 µM): -3.61 ± 1.1%
CC(C)CC(C)O (configuration not stated) [4-Methyl-2-pentanol] | -0.36 ± 0.0099% | -0.242 ± 0.16% | -1.1 ± 0.37% | -1.21 ± 0.61% | -1.33 ± 0.84% | -1.04 ± 0.65% | 0.165 ± 0.21% | 2.03 ± 1% | –
Cc1ccc(N)cc1 [4-Methylaniline] | -1.74 ± 0.54% | -1.26 ± 0.25% | -1.71 ± 0.048% | -2.15 ± 0.07% | -1.82 ± 0.86% | -1.12 ± 0.11% | -1.47 ± 0.87% | 0.2 ± 0.81% | –
Nc1ccc([N+](=O)[O-])cc1 [4-Nitroaniline] | -1.77 ± 1.4% | -2.08 ± 0.69% | -1.811 ± 0.018% | -1.58 ± 0.75% | -1.84 ± 0.43% | -0.905 ± 0.22% | 0.842 ± 1.3% | -0.219 ± 0.45% | –
O=C(O)c1ccc([N+](=O)[O-])cc1 [4-Nitrobenzoic acid] | -2.11 ± 0.46% | -1.22 ± 0.03% | -0.728 ± 0.58% | -0.721 ± 1.3% | -1.62 ± 0.43% | -0.906 ± 0.7% | -0.392 ± 0.1% | 1.32 ± 1.1% | –
O=[N+]([O-])c1ccc(O)cc1 [4-Nitrophenol] | -0.152 ± 0.3% | -1.48 ± 0.38% | -1.18 ± 0.11% | -1.8 ± 1.2% | -0.936 ± 0.28% | -1.26 ± 0.099% | -0.409 ± 0.81% | -0.082 ± 0.47% | –
Cc1ccc([N+](=O)[O-])cc1 [4-Nitrotoluene] | -0.445 ± 0.2% | -1.19 ± 1.1% | -0.0775 ± 0.88% | -0.642 ± 0.3% | -0.56 ± 0.64% | -0.236 ± 0.032% | -0.713 ± 0.035% | 1.62 ± 0.18% | –
CC(C)CCCCCCc1ccc(O)cc1 [4-Nonylphenol, branched] | -2.12 ± 0.23% | -1.46 ± 0.5% | -1.72 ± 0.52% | -1.24 ± 0.36% | -1.58 ± 0.073% | -1.23 ± 0.036% | -0.532 ± 0.65% | -0.17 ± 1% | –
CCCCCCCCCc1ccc(O)cc1 [4-Nonylphenol] | -1.27 ± 0.19% | -0.659 ± 0.11% | -1.49 ± 0.82% | -1.65 ± 0.14% | -0.715 ± 0.039% | 0.445 ± 1.6% | -0.17 ± 0.57% | 1.51 ± 1.1% | –
CCCCCc1ccc(N)cc1 [4-Pentylaniline] | -0.0179 ± 1.1% | -1.43 ± 0.21% | -0.689 ± 0.038% | -0.976 ± 0.26% | -0.886 ± 0.18% | -0.634 ± 0.16% | -0.209 ± 0.75% | 1.34 ± 0.21% | –
C1CC2OC2CC1C1CO1 (configuration not stated) [4-Vinyl-1-cyclohexene dioxide] | -0.357 ± 0.0064% | -1.96 ± 0.94% | -2.19 ± 0.42% | -1.67 ± 0.053% | -1.29 ± 0.3% | -1.43 ± 0.099% | -0.613 ± 1.2% | 78.1 ± 2.9% | –
CC1(C)NC(=O)NC1=O [5,5-Dimethylhydantoin] | -2.18 ± 0.37% | -2.28 ± 1% | -2.14 ± 0.96% | -3.5 ± 0.27% | -1.38 ± 0.42% | -1.82 ± 0.26% | -1.07 ± 0.056% | 1.93 ± 1.1% | –
O=C1NC(=O)C(c2ccccc2)(c2ccccc2)N1 [5,5-Diphenylhydantoin] | – | – | – | – | – | – | – | – | LDH release cytotoxicity (0.01581 µM): -5.31 ± 1.9%; LDH release cytotoxicity (0.05 µM): -5.08 ± 1.3%; LDH release cytotoxicity (0.1581139 µM): -5.88 ± 1%; LDH release cytotoxicity (0.5 µM): -6.19 ± 1.8%; LDH release cytotoxicity (1.5811388 µM): -4.95 ± 1.6%; LDH release cytotoxicity (5 µM): 40.5 ± 6.5%; LDH release cytotoxicity (15.8114 µM): 50.1 ± 6.8%; LDH release cytotoxicity (50 µM): 44.7 ± 3.1%
O=C(O)c1cc(Oc2ccc(C(F)(F)F)cc2Cl)ccc1[N+](=O)[O-] [5-(2-Chloro-4-(trifluoromethyl)phenoxy)-2-nitrobenzoic acid] | -0.08 ± 0.59% | -1.4 ± 0.2% | -0.769 ± 0.18% | -1.39 ± 0.35% | -0.738 ± 0.35% | -0.0876 ± 0.044% | 0.334 ± 0.06% | 2.95 ± 0.47% | –
Cc1ccc(N)cc1O [5-Amino-2-methylphenol] | -0.861 ± 0.26% | -1.2 ± 1.2% | -0.469 ± 1.2% | -1.04 ± 0.78% | -0.613 ± 0.33% | -0.636 ± 0.094% | -0.124 ± 0.049% | 0.121 ± 0.6% | –
Cn1sc(Cl)cc1=O [5-Chloro-2-methyl-3(2H)-isothiazolone] | -0.707 ± 0.6% | -1.2 ± 0.15% | -0.511 ± 0.28% | -1.23 ± 0.16% | -0.949 ± 0.12% | -0.788 ± 0.64% | -1.56 ± 0.12% | -1.76 ± 0.26% | –
O=C(Nc1ccc([N+](=O)[O-])cc1Cl)c1cc(Cl)ccc1O [5-Chloro-N-(2-chloro-4-nitrophenyl)-2-hydroxybenzamide] | 1.65 ± 0.17% | -0.562 ± 0.35% | -0.79 ± 0.51% | -0.00174 ± 0.41% | 0.224 ± 0.77% | 1.07 ± 0.19% | 1.7 ± 0.41% | 4.52 ± 0.71% | –
O=C1N=CC(F)C(=O)N1 (configuration not stated) [5-Fluorouracil] | -1.55 ± 0.12% | -3.9 ± 2.7% | -0.836 ± 0.12% | -1.84 ± 0.21% | -1.66 ± 0.052% | -1.56 ± 0.38% | -1.98 ± 0.46% | 8.44 ± 1.2% | –
COc1ccc([N+](=O)[O-])cc1N [5-Nitro-o-anisidine] | 0.0404 ± 0.33% | -1.94 ± 0.095% | -1.36 ± 0.15% | -1.28 ± 0.27% | -1.4 ± 0.22% | -1.25 ± 0.021% | 0.0123 ± 0.15% | 0.941 ± 0.76% | –
Cc1ccc([N+](=O)[O-])cc1N [5-Nitro-o-toluidine] | -0.782 ± 1% | -1.02 ± 0.28% | -1.84 ± 0.91% | -1.647 ± 0.013% | -1.55 ± 0.25% | -1.24 ± 0.39% | -0.792 ± 0.78% | -0.343 ± 0.81% | –
CC12CCC3C(CCC4CC(=O)CCC43C)C1CCC2O (stereo not drawn) [5alpha-Dihydrotestosterone] | – | – | – | – | – | – | – | – | LDH release cytotoxicity (0.0322552 µM): -1.49 ± 0.51%; LDH release cytotoxicity (0.102 µM): -1.05 ± 0.64%; LDH release cytotoxicity (0.322552 µM): -1.02 ± 0.95%; LDH release cytotoxicity (1.02 µM): -0.777 ± 0.65%; LDH release cytotoxicity (3.2255232 µM): -0.0601 ± 0.54%; LDH release cytotoxicity (10.2 µM): 0.259 ± 0.88%; LDH release cytotoxicity (32.2552 µM): 2.27 ± 0.7%; LDH release cytotoxicity (102 µM): 7.51 ± 0.71%
CC1=NC(=S)NC(=O)C1 [6-Methyl-2-thiouracil] | -1.61 ± 0.11% | -0.548 ± 0.32% | 0.567 ± 0.55% | 0.268 ± 0.56% | 0.0334 ± 0.84% | 0.892 ± 0.68% | 0.733 ± 1.8% | 0.731 ± 1.2% | –
Cc1ccc2ncccc2c1 [6-Methylquinoline] | -1.09 ± 0.86% | -1.74 ± 0.29% | -0.691 ± 0.21% | -0.702 ± 0.45% | 1.12 ± 0.71% | 3.62 ± 0.63% | 6.32 ± 0.88% | 12.7 ± 2.4% | –
